Reference: patent publication US20250059188A1, “ARYLSULPHONAMIDE COMPOUNDS” (Anaxis Pharma Pty Ltd, priority 2021, published 2025)

Tests used:
[1] = molecular target: human MLKL (full length) (Homo sapiens (Human), UniProt Q8NB16); experiment: KINOMEscan binding assay, human MLKL (full length); details: equilibrium dissociation constant
Outline: (§1)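 Kd values come from dose-response fits to the Hill equation (Hill slope −1, Levenberg–Marquardt least squares). Compound competed with bead-bound ligand for tagged kinase, and remaining kinase was measured by qPCR after elution. Dilution series: 11 points, 3-fold, 1% DMSO final, top 30,000 nM in most runs.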

[2] = molecular target: human RIPK1 (Homo sapiens (Human), UniProt Q13546); experiment: KINOMEscan binding assay, human RIPK1; details: equilibrium dissociation constant
human RIPK1, sequence (Q13546 whole entry): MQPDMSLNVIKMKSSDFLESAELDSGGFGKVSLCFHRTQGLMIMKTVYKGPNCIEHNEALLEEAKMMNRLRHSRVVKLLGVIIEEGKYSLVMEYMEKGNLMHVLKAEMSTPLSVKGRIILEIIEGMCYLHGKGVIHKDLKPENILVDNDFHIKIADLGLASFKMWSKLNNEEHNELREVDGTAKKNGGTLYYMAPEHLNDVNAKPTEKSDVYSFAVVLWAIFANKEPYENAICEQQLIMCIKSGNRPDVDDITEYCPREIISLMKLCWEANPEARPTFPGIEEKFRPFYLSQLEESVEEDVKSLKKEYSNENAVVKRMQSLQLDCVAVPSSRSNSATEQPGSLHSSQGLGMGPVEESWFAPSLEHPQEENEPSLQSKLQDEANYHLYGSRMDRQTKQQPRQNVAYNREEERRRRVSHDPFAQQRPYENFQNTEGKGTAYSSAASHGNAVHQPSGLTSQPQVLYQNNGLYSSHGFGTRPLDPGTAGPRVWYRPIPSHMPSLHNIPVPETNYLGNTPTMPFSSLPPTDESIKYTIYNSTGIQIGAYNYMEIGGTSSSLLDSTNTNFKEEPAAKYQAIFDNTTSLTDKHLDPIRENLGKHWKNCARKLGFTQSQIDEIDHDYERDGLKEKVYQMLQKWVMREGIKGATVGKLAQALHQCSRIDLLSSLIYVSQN
Outline: as §1

[3] = molecular target: human RIPK3 (Homo sapiens (Human), UniProt Q9Y572); experiment: KINOMEscan binding assay, human RIPK3; details: equilibrium dissociation constant
human RIPK3, sequence (Q9Y572 whole entry): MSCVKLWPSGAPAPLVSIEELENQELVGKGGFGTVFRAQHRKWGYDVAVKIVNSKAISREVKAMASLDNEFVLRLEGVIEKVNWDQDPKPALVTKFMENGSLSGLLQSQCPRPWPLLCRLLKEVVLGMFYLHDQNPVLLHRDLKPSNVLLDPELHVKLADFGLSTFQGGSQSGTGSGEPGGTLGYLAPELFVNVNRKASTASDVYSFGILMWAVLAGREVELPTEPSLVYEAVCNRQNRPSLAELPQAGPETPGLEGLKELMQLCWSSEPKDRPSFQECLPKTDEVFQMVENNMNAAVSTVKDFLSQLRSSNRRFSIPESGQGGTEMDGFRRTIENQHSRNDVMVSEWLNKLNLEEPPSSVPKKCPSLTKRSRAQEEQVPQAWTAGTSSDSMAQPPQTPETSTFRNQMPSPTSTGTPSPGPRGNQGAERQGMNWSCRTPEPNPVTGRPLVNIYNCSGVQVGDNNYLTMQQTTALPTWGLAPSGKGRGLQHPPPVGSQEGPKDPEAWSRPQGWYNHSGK
Outline: as §1

[4] = system: U937 human histiocytic leukemia cell line; experiment: Inhibition of TSQ induced necroptosis in U937 cells (CellTitre-Glo); details: Homo sapiens, U-937, TSQ cocktail (TNF, Smac mimetic, Q-VD-OPh), 48 hours, read-out: Inhibition of TSQ-induced necroptosis (IC50 cell-based assay)
Outline: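 Necroptosis was induced with TNF-Fc (100 ng/ml), Smac mimetic (500 nM) and Q-VD-OPh (10 μM) in 20000 U937 cells/well exposed to a 10-point, 3-fold compound series (top 36 μM, 0.3% DMSO). ATP luminescence read after 48 h; 4-parameter fit gave IC50. Parallel TSQ-free wells assessed compound toxicity.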

human MLKL (full length), sequence (Q8NB16 whole entry): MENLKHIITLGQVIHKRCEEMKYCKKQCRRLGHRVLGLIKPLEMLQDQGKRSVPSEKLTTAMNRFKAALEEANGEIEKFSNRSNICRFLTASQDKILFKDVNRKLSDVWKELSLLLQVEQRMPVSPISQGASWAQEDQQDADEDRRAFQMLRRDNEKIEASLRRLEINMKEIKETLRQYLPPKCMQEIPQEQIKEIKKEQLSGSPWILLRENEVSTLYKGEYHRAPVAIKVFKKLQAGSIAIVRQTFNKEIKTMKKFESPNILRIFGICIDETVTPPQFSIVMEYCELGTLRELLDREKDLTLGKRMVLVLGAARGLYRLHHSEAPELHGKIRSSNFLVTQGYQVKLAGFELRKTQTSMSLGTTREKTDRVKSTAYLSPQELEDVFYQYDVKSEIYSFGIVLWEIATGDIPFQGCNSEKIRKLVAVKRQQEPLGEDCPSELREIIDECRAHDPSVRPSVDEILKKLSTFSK

Molecule `C[C@@H](Oc1cc(-c2nn(C)c3c(-c4cnn(C5CCOCC5)c4)cnc(N)c23)ccc1NS(=O)(=O)C(F)F)c1ccc(F)cc1` [Compound 121, (R)-N-(4-(4-amino-1-methyl-7-(1-(tetrahydro-2H-pyran-4-yl)-1H-pyrazol-4-yl)-1H-pyrazolo[4,3-c]pyridin-3-yl)-2-(1-(4-fluorophenyl)ethoxy)phenyl)-1,1-difluoromethanesulfonamide] has a Kd [1] of under 1 nM, a Kd [2] of over 10 µM and a Kd [3] of over 10 µM. The IC50 [4] was 10 to 1000 nM.
Molecule `C[C@H](Oc1cc(-c2nn(C)c3c(-c4cnn(C5CCC(F)(F)CC5)c4)cnc(N)c23)ccc1NS(=O)(=O)C(F)F)c1ccc(F)cc1` [Compound 146, (S)-N-(4-(4-amino-7-(1-(4,4-difluorocyclohexyl)-1H-pyrazol-4-yl)-1-methyl-1H-pyrazolo[4,3-c]pyridin-3-yl)-2-(1-(4-fluorophenyl)ethoxy)phenyl)-1,1-difluoromethanesulfonamide] has a Kd [1] of 1 to 100 nM, a Kd [2] of over 10 µM and a Kd [3] of over 10 µM. The IC50 [4] was under 10 nM.
`C[C@H](Oc1cc(-c2nn(C)c3c(-c4cnn(C5CCOCC5)c4)cnc(N)c23)ccc1NS(=O)(=O)C(F)F)c1ccc(F)cc1` [Compound 19, (S)-N-(4-(4-amino-1-methyl-7-(1-(tetrahydro-2H-pyran-4-yl)-1H-pyrazol-4-yl)-1H-pyrazolo[4,3-c]pyridin-3-yl)-2-(1-(4-fluorophenyl)ethoxy)phenyl)-1,1-difluoromethanesulfonamide] gave a Kd [1] of under 1 nM, a Kd [2] of over 10 µM and a Kd [3] of over 10 µM. The IC50 [4] was under 10 nM.
For `C[C@H](Oc1cc(-c2nn(C)c3c(C#CC4CCNCC4)cnc(N)c23)ccc1NS(=O)(=O)C(F)F)c1ccc(F)cc1` [Compound 79, (S)—N-(4-(4-amino-1-methyl-7-(piperidin-4-ylethynyl)-1H-pyrazolo[4,3-c]pyridin-3-yl)-2-(1-(4-fluorophenyl)ethoxy)phenyl)-1,1-difluoromethanesulfonamide], the Kd [1] was under 1 nM, the Kd [2] was over 10 µM and the Kd [3] was over 10 µM. For the same molecule, the IC50 [4] was 10 to 1000 nM.
For `CC1CN(C)CC(C)C1n1cc(-c2cnc(N)c3c(-c4ccc(NS(=O)(=O)C(F)F)c(O[C@@H](C)c5ccc(F)cc5)c4)nn(C)c23)cn1` (stereo partly drawn) [Compound 172, N-(4-{4-amino-1-methyl-7-[1-(1,3,5-trimethylpiperidin-4-yl)-1H-pyrazol-4-yl]-1H-pyrazolo[4,3-c]pyridin-3-yl}-2-[(1S)-1-(4-fluorophenyl)ethoxy]phenyl)-1,1-difluoromethanesulfonamide], the Kd [1] was 1 to 100 nM, the Kd [2] was over 10 µM and the Kd [3] was over 10 µM. The IC50 [4] was 10 to 1000 nM.
Work on `C[C@H](Oc1cc(-c2nn(C)c3c(-c4cnn(C5CC6CCC(C5)N6CC(F)(F)F)c4)cnc(N)c23)ccc1NS(=O)(=O)C(F)F)c1ccc(F)cc1` (stereo partly drawn) [Compound 153, N-(4-(4-amino-1-methyl-7-(1-(8-(2,2,2-trifluoroethyl)-8-azabicyclo[3.2.1]octan-3-yl)-1H-pyrazol-4-yl)-1H-pyrazolo[4,3-c]pyridin-3-yl)-2-((S)-1-(4-fluorophenyl)ethoxy)phenyl)-1,1-difluoromethanesulfonamide] yielded a Kd [1] of 1 to 100 nM, a Kd [2] of over 10 µM and a Kd [3] of over 10 µM. The IC50 [4] was 10 to 1000 nM.
`C[C@H](Oc1cc(-c2nn(C)c3c(-c4cnn(C5CCC(C)(C)N(C)C5)c4)cnc(N)c23)ccc1NS(=O)(=O)C(F)F)c1ccc(F)cc1` (stereo partly drawn) [Compound 104, N-(4-{4-amino-1-methyl-7-[1-(1,6,6-trimethylpiperidin-3-yl)-1H-pyrazol-4-yl]-1H-pyrazolo[4,3-c]pyridin-3-yl}-2-[(1 S)-1-(4-fluorophenyl)ethoxy]phenyl)-1,1-difluoromethanesulfonamide] was tested, and the Kd [1] was under 1 nM, the Kd [2] was over 10 µM and the Kd [3] was over 10 µM. For the same molecule, the IC50 [4] was under 10 nM.
`CC1C(n2cc(-c3cnc(N)c4c(-c5ccc(NS(=O)(=O)C(F)F)c(O[C@@H](C)c6ccc(F)cc6)c5)nn(C)c34)cn2)CN1C` (stereo partly drawn) [Compound 147, N-(4-(4-amino-7-(1-(1,2-dimethylazetidin-3-yl)-1H-pyrazol-4-yl)-1-methyl-1H-pyrazolo[4,3-c]pyridin-3-yl)-2-((S)-1-(4-fluorophenyl)ethoxy)phenyl)-1,1-difluoromethanesulfonamide] showed a Kd [1] of 1 to 100 nM, a Kd [2] of over 10 µM and a Kd [3] of over 10 µM. For the same molecule, the IC50 [4] was 10 to 1000 nM.
Molecule `C[C@H](Oc1cc(-c2nn(C)c3c(-c4cnn(C5CCN(C)C(C)(C)C5)c4)cnc(N)c23)ccc1NS(=O)(=O)C(F)F)c1ccc(Cl)cc1` (stereo partly drawn) [Compound 159, N-(4-(4-amino-1-methyl-7-(1-(1,2,2-trimethylpiperidin-4-yl)-1H-pyrazol-4-yl)-1H-pyrazolo[4,3-c]pyridin-3-yl)-2-((S)-1-(4-chlorophenyl)ethoxy)phenyl)-1,1-difluoromethanesulfonamide] has a Kd [1] of under 1 nM, a Kd [2] of over 10 µM and a Kd [3] of over 10 µM. It also gave an IC50 [4] of under 10 nM.
With `C[C@H](Oc1cc(-c2nn(C)c3c(-c4cnn(C5CCN(C)CC5)c4)cnc(N)c23)ccc1NS(=O)(=O)C(F)F)c1ccc(F)cc1` [Compound 46, (S)-N-(4-(4-amino-1-methyl-7-(1-(1-methylpiperidin-4-yl)-1H-pyrazol-4-yl)-1H-pyrazolo[4,3-c]pyridin-3-yl)-2-(1-(4-fluorophenyl)ethoxy)phenyl)-1,1-difluoromethanesulfonamide] the Kd [1] was 1 to 100 nM, the Kd [2] was over 10 µM and the Kd [3] was over 10 µM. The IC50 [4] was 10 to 1000 nM.
`C[C@H](Oc1cc(-c2nn(C)c3c(-c4cnn(C5CCC(F)(F)C5)c4)cnc(N)c23)ccc1NS(=O)(=O)C(F)F)c1ccc(F)cc1` (stereo partly drawn) [Compound 120, N-(4-{4-amino-7-[1-(3,3-difluorocyclopentyl)-1H-pyrazol-4-yl]-1-methyl-1H-pyrazolo[4,3-c]pyridin-3-yl}-2-[(1S)-1-(4-fluorophenyl)ethoxy]phenyl)-1,1-difluoromethanesulfonamide] gave a Kd [1] of 1 to 100 nM, a Kd [2] of over 10 µM and a Kd [3] of over 10 µM. For the same molecule, the IC50 [4] was under 10 nM.
Work on `C[C@H](Oc1cc(-c2nn(C)c3c(-c4cnn(C5(CC#N)COC5)c4)cnc(N)c23)ccc1NS(=O)(=O)C(F)F)c1ccc(F)cc1` [Compound 98, (S)-N-(4-(4-amino-7-(1-(3-(cyanomethyl)oxetan-3-yl)-1H-pyrazol-4-yl)-1-methyl-1H-pyrazolo[4,3-c]pyridin-3-yl)-2-(1-(4-fluorophenyl)ethoxy)phenyl)-1,1-difluoromethanesulfonamide] yielded a Kd [1] of under 1 nM, a Kd [2] of over 10 µM and a Kd [3] of over 10 µM. The IC50 [4] was 10 to 1000 nM.
For `C[C@H](Oc1cc(-c2nn(C)c3c(-c4cnn(C5CC(C)(C)N(C)C(C)(C)C5)c4)cnc(N)c23)ccc1NS(=O)(=O)C(F)F)c1ccc(F)cc1` [Compound 162, (S)-N-(4-(4-amino-1-methyl-7-(1-(1,2,2,6,6-pentamethylpiperidin-4-yl)-1H-pyrazol-4-yl)-1H-pyrazolo[4,3-c]pyridin-3-yl)-2-(1-(4-fluorophenyl)ethoxy)phenyl)-1,1-difluoromethanesulfonamide], the Kd [1] was under 1 nM, the Kd [2] was over 10 µM and the Kd [3] was over 10 µM. The IC50 [4] was under 10 nM.
`C[C@H](Oc1cc(-c2nn(C)c3c(-c4cnn(C5CCN(C)C(C(F)(F)F)C5)c4)cnc(N)c23)ccc1NS(=O)(=O)C(F)F)c1ccc(F)cc1` (stereo partly drawn) [Compound 148, N-(4-(4-amino-1-methyl-7-(1-(1-methyl-2-(trifluoromethyl)piperidin-4-yl)-1H-pyrazol-4-yl)-1H-pyrazolo[4,3-c]pyridin-3-yl)-2-((S)-1-(4-fluorophenyl)ethoxy)phenyl)-1,1-difluoromethanesulfonamide] gave a Kd [1] of 1 to 100 nM, a Kd [2] of over 10 µM and a Kd [3] of over 10 µM. For the same molecule, the IC50 [4] was under 10 nM.
`C[C@H](Oc1cc(-c2nn(C)c3c(-c4cnn(C5C[C@@H]6CN(C)C[C@@H]6C5)c4)cnc(N)c23)ccc1NS(=O)(=O)C(F)F)c1ccc(F)cc1` (stereo partly drawn) [Compound 164, N-(4-(4-amino-1-methyl-7-(1-((3aR,6aS)-2-methyloctahydrocyclopenta[c]pyrrol-5-yl)-1H-pyrazol-4-yl)-1H-pyrazolo[4,3-c]pyridin-3-yl)-2-((S)-1-(4-fluorophenyl)ethoxy)phenyl)-1,1-difluoromethanesulfonamide] showed a Kd [1] of under 1 nM, a Kd [2] of over 10 µM and a Kd [3] of over 10 µM. It also gave an IC50 [4] of under 10 nM.
With `C[C@H](Oc1cc(-c2nn(C)c3c(-c4cnn(C5CCN(C)C6(CC6)C5)c4)cnc(N)c23)ccc1NS(=O)(=O)C(F)F)c1ccc(F)cc1` (single isomer, unassigned) [Compound 170, N-(4-(4-amino-1-methyl-7-(1-((S*)-4-methyl-4-azaspiro[2.5]octan-7-yl)-1H-pyrazol-4-yl)-1H-pyrazolo[4,3-c]pyridin-3-yl)-2-((S)-1-(4-fluorophenyl)ethoxy)phenyl)-1,1-difluoromethanesulfonamide] the Kd [1] was 1 to 100 nM, the Kd [2] was over 10 µM and the Kd [3] was over 10 µM. It also gave an IC50 [4] of 10 to 1000 nM.
Molecule `COCC(Oc1cc(-c2nn(C)c3c(-c4cnn(C5CCN(C)CC5)c4)cnc(N)c23)ccc1NS(=O)(=O)C(F)F)c1ccc(F)cc1` (stereo not drawn) [Compound 139, N-(4-(4-amino-1-methyl-7-(1-(1-methylpiperidin-4-yl)-1H-pyrazol-4-yl)-1H-pyrazolo[4,3-c]pyridin-3-yl)-2-(1-(4-fluorophenyl)-2-methoxyethoxy)phenyl)-1,1-difluoromethanesulfonamide] has a Kd [1] of 1 to 100 nM, a Kd [2] of over 10 µM and a Kd [3] of over 10 µM. For the same molecule, the IC50 [4] was 10 to 1000 nM.
Molecule `C[C@H](Oc1cc(-c2nn(C)c3c(-c4cnn(C5CCN(C)C(C)(C)C5)c4)cnc(N)c23)ccc1NS(=O)(=O)C(F)F)c1ccc(F)cc1` (single isomer, unassigned) [Compound 113] has a Kd [1] of under 1 nM, a Kd [2] of over 10 µM and a Kd [3] of over 10 µM. The IC50 [4] was under 10 nM.
